Data set [1] deals with Aphis craccivoral. Put plainly: Insecticidal activity against Aphis craccivoral by immersing (dipping aphids on bean sprout). To be noted: 23° C. The format is in vivo. The method, boiled down:
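Wingless adult A. craccivora feeding on bean sprouts dipped 5 seconds in compound at 500 ug/mL (0.2 mL/L Triton X-100 aqueous), then held at 23 °C. Mortality counted after 24 hours, three replicates, vehicle-only control.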

The subject of data set [2] is Nilaparvata lugens. Put plainly: Insecticidal activity against Nilaparvata lugens (planthopper) by spraying. The format is in vivo. Particulars: 500 ppm; for mortality (%) (500 ppm) Nilaparvata lugens: spraying 2 ml, counted after 24 hours; for mortality (%) (500 ppm) Nilaparvata-lugens: spraying 2 ml per tumbler, killed counted after 24 hours. In short, it runs like this:
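Ten planthoppers per tumbler were introduced 6 hours before spraying with 2 ml of test solution, with clean water as blank control. Each treatment had 3 replicates, and three series were run. Mortality was counted after 24 hours.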

Setting [3] is: 500 ppm, immersing (dipped 5 seconds), counted after 24 hours.
Where [4] appears, read: 500 ppm (500 ug/mL dilution), dipped 5 seconds, killed aphis counted after 24 hours.

In the case of `O=C(OC1CCC([N+](=O)[O-])=C2N(Cc3cnc(Cl)s3)CCN21)c1cccnc1` (centres unmarked) [Compound 159], in data set [1] (setting [3]), the “mortality (%) (500 ppm) Aphis” value is on record as 0%. For the same molecule, the “mortality (%) (500 ppm) Nilaparvata lugens” value in data set [2] amounted to 8%.
For `CC(C)CCOC1CCC([N+](=O)[O-])=C2N(CC3CCOC3)CCN21` (centres unmarked) [Compound 60] the same measures were 3% and 5%.
The like results for `CCCCOC1CCC([N+](=O)[O-])=C2N(CC3CCOC3)CCCN21` (centres unmarked) [Compound 107] were, in that order, 7% and 0%.
For `CC(C)OC1CCC([N+](=O)[O-])=C2N(Cc3cnc(Cl)s3)CCN21` (racemic) [Compound 29] the same measures were 100% and 100%.
In the case of `CCC(=O)OC1CCC([N+](=O)[O-])=C2N(Cc3ccc(Cl)nc3)CCN21` (centres unmarked) [Compound 114], the “mortality (%) (500 ppm) Aphis” value in data set [1] (setting [3]) came to 56%. Further, the “mortality (%) (500 ppm) Nilaparvata lugens” value in data set [2] stood at 88%.
The like results for `O=C(OC1CCC([N+](=O)[O-])=C2N(Cc3ccc(Cl)nc3)CCN21)c1ccc(Cl)c(Cl)c1` (centres unmarked) [Compound 131] were, in that order, 3% and 0%.
Consider `O=C(OC1CCC([N+](=O)[O-])=C2N(Cc3cnc(Cl)s3)CCN21)C(F)(F)F` (centres unmarked) [Compound 155], for which the “mortality (%) (500 ppm) Aphis” value in data set [1] (setting [3]) amounted to 48%. Besides, the “mortality (%) (500 ppm) Nilaparvata lugens” value in data set [2] was determined as 90%.
For `CC1CC(O)N2CCN(Cc3cnc(Cl)s3)C2=C1[N+](=O)[O-]` (centres unmarked) [Compound 70] the same measures were 33% and 12%.
For `O=[N+]([O-])C1=C2N(CC3CCOC3)CCN2C(O)CC1` (centres unmarked) [Compound 45] the same measures were 56% and 89%.
For `CC(C)(C)SC1CCC([N+](=O)[O-])=C2N(Cc3cnc(Cl)s3)CCN21` (centres unmarked) [Compound 181], the “mortality (%) (500 ppm) Aphis” value in data set [1] (setting [4]) came out at 45%. Besides, the “mortality (%) (500 ppm) Nilaparvata-lugens” value in data set [2] was 78%.
The like results for `O=C(OC1CCC([N+](=O)[O-])=C2N(Cc3cnc(Cl)s3)CCN21)c1cc(F)c(F)c(F)c1F` (centres unmarked) [Compound 167] were, in that order, 12% and 4%.
For `CCSC1CCC([N+](=O)[O-])=C2N(Cc3cnc(Cl)s3)CCN21` (centres unmarked) [Compound 172] the same measures were 100% and 100%.
For `CC(C)SC1CCC([N+](=O)[O-])=C2N(Cc3cnc(Cl)s3)CCN21` (centres unmarked) [Compound 176] the same measures were 78% and 98%.
For `CCCCCN=C1CCC([N+](=O)[O-])=C2N(Cc3cnc(Cl)s3)CCCN12` [Compound 226], in data set [1] (setting [4]), the “mortality (%) (500 ppm) Aphis” value worked out at 22%. For the same molecule, the “mortality (%) (500 ppm) Nilaparvata-lugens” value in data set [2] was determined as 57%.
`O=[N+]([O-])C1=C2N(Cc3ccc(Cl)nc3)CCN2C(OC2CCCCC2)CC1` (racemic) [Compound 18]: in data set [1] (setting [3]), the “mortality (%) (500 ppm) Aphis” value is 23%. For the same molecule, the “mortality (%) (500 ppm) Nilaparvata lugens” value in data set [2] is 67%.
The like results for `CC(C)CCSC1CCC([N+](=O)[O-])=C2N(Cc3ccc(Cl)nc3)CCN21` (centres unmarked) [Compound 145] were, in that order, 67% and 78%.
`CCOCCSC1CCC([N+](=O)[O-])=C2N(Cc3ccc(Cl)nc3)CCN21` (centres unmarked) [Compound 149]: the “mortality (%) (500 ppm) Aphis” value in data set [1] (setting [3]) came to 98%. For the same molecule, the “mortality (%) (500 ppm) Nilaparvata lugens” value in data set [2] is 100%.
The like results for `CCCSC1CCC([N+](=O)[O-])=C2N(Cc3ccc(Cl)nc3)CCN21` (centres unmarked) [Compound 136] were, in that order, 100% and 100%.
For `O=[N+]([O-])C1=C2N(Cc3cnc(Cl)s3)CCN2C(OS(=O)(=O)c2ccccc2)CC1` (centres unmarked) [Compound 158] the same measures were 6% and 7%.
As for `CC(C)N=C1CCC([N+](=O)[O-])=C2N(Cc3ccc(Cl)nc3)CCN12` [Compound 193], the “mortality (%) (500 ppm) Aphis” value in data set [1] (setting [4]) is reported as 93%. The “mortality (%) (500 ppm) Nilaparvata-lugens” value in data set [2] amounted to 98%.
As to `COC1CCC([N+](=O)[O-])=C2N(CC3CCOC3)CCCN21` (centres unmarked) [Compound 100], in data set [1] (setting [3]), the “mortality (%) (500 ppm) Aphis” value was determined as 3%. The “mortality (%) (500 ppm) Nilaparvata lugens” value in data set [2] amounted to 8%.
The like results for `O=[N+]([O-])C1=C2N(Cc3cnc(Cl)s3)CCCN2C(OCC(F)(F)F)CC1` (centres unmarked) [Compound 89] were, in that order, 100% and 100%.
As to `O=C(OC1CCC([N+](=O)[O-])=C2N(Cc3cnc(Cl)s3)CCN21)c1ccc(C(F)(F)F)cc1` (centres unmarked) [Compound 165], in data set [1] (setting [4]), the “mortality (%) (500 ppm) Aphis” value is on record as 90%. In data set [2], the “mortality (%) (500 ppm) Nilaparvata-lugens” value came out at 100%.
For `CCCCOC1CCC([N+](=O)[O-])=C2N(Cc3cnc(Cl)s3)CCCN21` (centres unmarked) [Compound 93], the “mortality (%) (500 ppm) Aphis” value in data set [1] (setting [3]) is recorded as 7%. Moreover, the “mortality (%) (500 ppm) Nilaparvata lugens” value in data set [2] was determined as 8%.
In the case of `CC(C)N=C1CCC([N+](=O)[O-])=C2N(Cc3ccc(Cl)nc3)CCCN12` [Compound 206], in data set [1] (setting [4]), the “mortality (%) (500 ppm) Aphis” value is listed as 56%. In addition, in data set [2], the “mortality (%) (500 ppm) Nilaparvata-lugens” value came out at 98%.
The like results for `O=C(OC1CCC([N+](=O)[O-])=C2N(Cc3cnc(Cl)s3)CCN21)c1cc(F)c(F)c([N+](=O)[O-])c1F` (centres unmarked) [Compound 169] were, in that order, 2% and 13%.
Take `C#CCOC1CCC([N+](=O)[O-])=C2N(CC3CCOC3)CCN21` (centres unmarked) [Compound 65]: the “mortality (%) (500 ppm) Aphis” value in data set [1] (setting [3]) came to 47%. Besides, in data set [2], the “mortality (%) (500 ppm) Nilaparvata lugens” value is given as 34%.
Take `O=C(OC1CCC([N+](=O)[O-])=C2N(Cc3ccc(Cl)nc3)CCN21)c1cccnc1` (centres unmarked) [Compound 120]: the “mortality (%) (500 ppm) Aphis” value in data set [1] (setting [3]) is reported as 1%. In addition, the “mortality (%) (500 ppm) Nilaparvata lugens” value in data set [2] worked out at 5%.
For `O=C(OC1CCC([N+](=O)[O-])=C2N(Cc3ccc(Cl)nc3)CCN21)C(F)(F)F` (centres unmarked) [Compound 116] the same measures were 2% and 45%.
For `COCCOC1CCC([N+](=O)[O-])=C2N(CC3CCOC3)CCN21` (centres unmarked) [Compound 66] the same measures were 100% and 100%.
As for `CCC(C)SC1CCC([N+](=O)[O-])=C2N(Cc3ccc(Cl)nc3)CCN21` (centres unmarked) [Compound 141], the “mortality (%) (500 ppm) Aphis” value in data set [1] (setting [3]) is recorded as 56%. In addition, in data set [2], the “mortality (%) (500 ppm) Nilaparvata lugens” value turned out to be 89%.
The like results for `C#CCOC1CCC([N+](=O)[O-])=C2N(Cc3ccc(Cl)nc3)CCN21` (racemic) [Compound 20] were, in that order, 39% and 56%.
For `O=[N+]([O-])C1=C2N(Cc3cnc(Cl)s3)CCN2C(OS(=O)(=O)C(F)(F)F)CC1` (centres unmarked) [Compound 157] the same measures were 56% and 100%.
For the molecule `CN=C1CCC([N+](=O)[O-])=C2N(Cc3ccc(Cl)nc3)CCN12` [Compound 189], the “mortality (%) (500 ppm) Aphis” value in data set [1] (setting [4]) was 100%. In data set [2], the “mortality (%) (500 ppm) Nilaparvata-lugens” value turned out to be 100%.

For the origin of these results see US7655665B2, “Nitromethylene derivatives and their use” (East China University of Science and Technology, priority 2004, dated 2010).
